Measurements reported in US20210395327A1, “Growth Hormone-Releasing Hormone Antagonists and Uses Thereof” (United States Government As Represented By The Department …, priority 2019, published 2021).
Non-standard residues stand in square brackets, D forms with d. Residues, ends and D or L forms follow the SMILES beside them. *: point of attachment. Phenylacetyl(2,3,4,5,6-F5) = O=C(Cc1c(F)c(F)c(F)c(F)c1F)*; Phe(F5) = N[C@@H](Cc1c(F)c(F)c(F)c(F)c1F)C(=O)O; Phe(4-Cl) = N[C@@H](Cc1ccc(Cl)cc1)C(=O)O; hArg = N=C(N)NCCCC[C@H](N)C(=O)O; 12Ado = NCCCCCCCCCCCC(=O)O; Nle = CCCC[C@H](N)C(=O)O; Abu = CC[C@H](N)C(=O)O

Assays:
[1] = system: ovarian cancer OVCAR-3 xenograft; assay: Xenograft tumor growth in nude mice, OVCAR-3; assay type: in vivo; settings: Table 4M, Ovarian Ca OVCAR-3, 9 weeks; for % Inhibition: vs control
Procedure: (§1) The peptides' activity was compared with GHRH antagonist MIA-602. All statistical analyzses were performed from comparing GHRA antagonists to non-treated tumor (control).
(§2) Peptides and chemicals. GHRH antagonists MIA-602 and AVR-GHRH antagonists (see Table 2 above) were synthesized by solid phase methods and purified by HPLC. The peptides were dissolved in DMSO and further diluted in 10% 1,2-propanediol. The final concentration of peptides was 50 µg/ml in 10% 1,2-propanediol containing 0.1% of DMSO.
(§3) Cell culture. Human cancer cell lines including pancreatic (PANC-1 and CFPAC-1), lung (HCC827 and H460), stomach (NCI-N87), prostate (PC3), brest (MX-1 and HCC-1806), colorectal (HT-29), and ovarian (SK-OV-3 and OVCAR-3) were obtained from the American Type Culture Collection (ATCC) and cultured at 37° C. in a humidified 95% air/5% CO2 atmosphere in the medium recommended by ATCC.
(§4) Xenograft models of human cancers in nude mice. Female athymic (NCr nu/nu) nude mice, 5- to 6-weeks-old, obtained from the Envigo labs (Tampa, Fla.), were housed in laminar airflow cabinets under pathogen-free conditions with a 12-h light/12-h dark schedule, and were fed autoclaved standard chow and water. To generate mice with xenografted tumors, tumor xenografts were initiated by subcutaneous (s.c.) injection of 107 human cancer cells into female nude mice. After about 4 weeks the resulting tumors were dissected and collected after removing necrosis tissues. The tumors were then cut into particles with size of 3 mm3 and transplanted s.c. by trocar needle into experimental animals. When tumors grew to the size of 50-60 mm3 (by volume), mice were randomized into groups and treated daily for 4-8 weeks by subcutaneous administration of 5 μg of GHRH antagonists MIA-602 or AVR-compounds (2-10 μg as indicated), or vehicle solutions (0.1% DMSO in 10% 1,2-propanediol) respectively. Tumor sizes were measured weekly.
(§5) Statistical analysis. One-way ANOVA followed by Bonferroni comparison were performed. Data are expressed as Mean±SEM. To determine statistical significance between animal groups, two-tailed Student's t-test was conducted. Differences were considered significant when p<0.05.
(§6) Results. […] FIG. 1A-N represents in vivo inhibition of tumor growth during the treatment with GHRH antagonist MIA-602 and selected AVR antagonists in nude mice xenografted with various human tumors including pancreatic cancer PANC-1 (FIG. 1A) and CFPAC-1 (FIG. 1I); lung cancer HCC827 (FIGS. 1B, C) and H460 (FIG. 1H); stomach cancer N87 (FIGS. 1D-F); colon cancer HT-29 (FIG. 1G); breast cancer MX-1 and HCC-1806 (FIGS. 1J, K); ovarian cancer SK-OV-3 and OVACAR-3 (FIGS. 1 L, M) and prostate cancer PC3 (FIG. 1N). See also Table 5.

[2] = system: colon cancer HT-29 xenograft; assay: Xenograft tumor growth in nude mice, HT-29; assay type: in vivo; settings: Table 4G, Colon Ca HT-29, 6 weeks; for % Inhibition: vs control
Procedure: as §1, §2, §3, §4, §5, §6

[3] = system: OVCAR-3 ovarian cancer cells; assay: In vitro cell viability, OVCAR-3; assay type: cell-based, human; settings: Table 3B; * at 2 μM for 72 H; MIA-602 = 1
Procedure: (§7) The inhibitory effects of the various synthesized GHRH antagonists were tested in cell proliferation assays in various human cancer cell lines including stomach cancer (KATOIII, N87), colon cancer (HT-29), urothelial cancer (J82, RT4), pancreatic cancer (PANC-1, CFPAC-1), prostatic cancer (PC3), breast cancer (MX-1, HCC1806), ovarian cancer (SK-OV-3, OVCAR-3) and lung cancer (HCC827, H460).
as §3, with “(NCI-N87 and KATOIII), urothelial (J82, RT4), prostatic” for “(NCI-N87), prostate”, “breast” for “brest”, “HCC 1806),” for “HCC-1806),”
(§8) In vitro cell viability. Cell viability was analyzed as follows: cancer cells including pancreatic (PANC-1 and CFPAC-1), lung (HCC827 and H460), stomach (NCI-N87 and KATOIII), urothelial (J82, RT4), prostatic (PC3) and breast (MX-1 and HCC 1806), colorectal (HT-29) and ovarian (SK-OV-3 and OVCAR-3) were grown on 96 well plates to ˜60% confluence, the cells were starved for 24 h in culture medium containing 0.5% FBS. Cells were then treated with GHRH antagonists MIA602 AVR compounds at concentrations of 1, 2.5 or 5 μM, or vehicle (0.1% DMSO) in quintuplicates for 72 hours. The medium was replaced every 48 hours. Cell viability was measured using CellTiter 96 aqueous one solution kit (Promega). Inhibitory effects of tested AVR compounds in comparison to that of MIA602 are presented as inhibitory potency.
Inhibitory effects of selected AVR compounds in comparison to that of MIA602 are presented as inhibitory potency (e.g., percentage of inhibition). […] The cell lines tested including lung cancer HCC827 (FIG. 2A), pancreatic cancer CFPAC-1 (FIG. 2B), stomach cancer N87 (FIG. 2C), colon cancer HT-29 (FIG. 2D), breast cancers MX-1 and HCC1806 (FIGS. 2 E, F). […]

[4] = system: lung cancer H460 xenograft; assay: Xenograft tumor growth in nude mice, H460; assay type: in vivo; settings: Table 4H, Lung Ca H460, 4 weeks, 5 μg/day s.c.
Procedure: as §1, §2, §3, §4, §5, §6

[5] = system: pancreatic cancer CFPAC-1 xenograft; assay: Xenograft tumor growth in nude mice, CFPAC-1; assay type: in vivo; settings: Table 4I, Pancreatic Ca CFPAC-1, 7 weeks; for % Inhibition: vs control
Procedure: as §1, §2, §3, §4, §5, §6

[6] = system: HCC1806 breast cancer cells; assay: In vitro cell viability, HCC1806; assay type: cell-based, human; settings: Table 3B; 5 μM for 72 H; MIA-602 = 1
Procedure: as §7
as §3, with “(NCI-N87 and KATOIII), urothelial (J82, RT4), prostatic” for “(NCI-N87), prostate”, “breast” for “brest”, “HCC 1806),” for “HCC-1806),”
as §8
Inhibitory effects of selected AVR compounds in comparison to that of MIA602 are presented as inhibitory potency (e.g., percentage of inhibition). […] The cell lines tested including lung cancer HCC827 (FIG. 2A), pancreatic cancer CFPAC-1 (FIG. 2B), stomach cancer N87 (FIG. 2C), colon cancer HT-29 (FIG. 2D), breast cancers MX-1 and HCC1806 (FIGS. 2 E, F). Based on the results of cell proliferation assay after cancer cells were treated with antagonist at concentration of 5 μM for 72H, the relative inhibitory potency of AVR antagonists in comparison to MIA-602 is summarized in Table 3 A and B. Over 60 AVR compounds were tested in 12 cancer cell lines.
Based on the results of cell proliferation assay after cancer cells were treated with antagonist at concentration of 5 µM for 72H, * at concentration of 2 µM for 72 H.

[7] = system: breast cancer HCC-1806 xenograft; assay: Xenograft tumor growth in nude mice, HCC-1806; assay type: in vivo; settings: Table 4K, Breast Ca HCC-1806, 5 weeks, 5 μg/day s.c.
Procedure: as §1, §2, §3, §4, §5, §6

SMILES: CCCC[C@H](NC(=O)[C@@H](NC(=O)[C@H](CC(=O)O)NC(=O)[C@H](CCC(N)=O)NC(=O)[C@H](CC(C)C)NC(=O)[C@H](CC(C)C)NC(=O)[C@H](CCCCN)NC(=O)[C@H](CCCNC(=N)N)NC(=O)[C@H](C)NC(=O)[C@H](CO)NC(=O)[C@H](CC(C)C)NC(=O)[C@H](CCC(N)=O)NC(=O)[C@H](CC)NC(=O)[C@H](CC(C)C)NC(=O)[C@@H](NC(=O)[C@H](CCCCN)NC(=O)[C@H](CCCNC(=N)N)NC(=O)[C@H](Cc1c(F)c(F)c(F)c(F)c1F)NC(=O)[C@H](CCCCNC(=N)N)NC(=O)[C@H](C)NC(=O)[C@@H](NC(=O)[C@H](Cc1ccc(Cl)cc1)NC(=O)[C@@H](NC(=O)[C@H](C)NC(=O)[C@H](CC(=O)O)NC(=O)[C@@H](CCCNC(=N)N)NC(=O)[C@H](Cc1ccc(O)cc1)NC(=O)CCCCCCCCCCCNC(=O)Cc1c(F)c(F)c(F)c(F)c1F)[C@@H](C)CC)[C@@H](C)O)C(C)C)[C@@H](C)CC)C(=O)N[C@H](CCCNC(=N)N)C(=O)N[C@@H](CCCCNC(=N)N)C(=O)NCCCCCCCCCCCC(N)=O [AVR-353, 5FPhAC-Ada-Tyr-DArg-Asp-Ala-Ile-Cpa-Thr-Ala-Har-5FPhe-Arg-Lys-Val-Leu-Abu-Gln-Leu-Ser-Ala-Arg-Lys-Leu-Leu-Gln-Asp-Ile-Nle-DArg-Har-Ada-NH2] ({Phenylacetyl(2,3,4,5,6-F5)-12Ado}-Y[dR]DAI[Phe(4-Cl)]TA[hArg][Phe(F5)]RKVL[Abu]QLSARKLLQDI[Nle][dR][hArg][12Ado]-NH2)
- Tumor Size (mm3) ([1]; 2.5 μg/day s.c.): 357.0 mm3
- % Inhibition ([1]; 2.5 μg/day s.c.): 25.7%
- Tumor Size (mm3) ([1]; 5 μg/day s.c.): 255.2 mm3
- % Inhibition ([1]; 5 μg/day s.c.): 46.9%
- Tumor Size (mm^3) ([2]; 2 μg/day s.c.): 549.30 mm^3
- % Inhibition ([2]; 2 μg/day s.c.): 24.2%
- Tumor Size (mm^3) ([2]; 5 μg/day s.c.): 494.70 mm^3
- % Inhibition ([2]; 5 μg/day s.c.): 31.8%
- In vitro relative inhibitory potency in comparison to MIA-602, OVCAR-3 [3]: 1.55*
- Tumor Growth % [4]: 1335.0%
- % Inhibition ([4]; vs control): 60.5%
- Tumor Growth % ([5]; 2.5 μg/day s.c.): 1294.1%
- % Inhibition ([5]; 2.5 μg/day s.c.): 34.3%
- Tumor Growth % ([5]; 5 μg/day s.c.): 1077.6%
- % Inhibition ([5]; 5 μg/day s.c.): 46.2%
- In vitro relative inhibitory potency in comparison to MIA-602, HCC-1806 [6]: 9.396

SMILES: CCCC[C@H](NC(=O)[C@@H](NC(=O)[C@H](CC(=O)O)NC(=O)[C@H](CCC(N)=O)NC(=O)[C@H](CC(C)C)NC(=O)[C@H](CC(C)C)NC(=O)[C@H](CCCCN)NC(=O)[C@H](CCCNC(=N)N)NC(=O)[C@H](C)NC(=O)[C@H](CO)NC(=O)[C@H](CC(C)C)NC(=O)[C@H](CCC(N)=O)NC(=O)[C@H](CC)NC(=O)[C@H](CC(C)C)NC(=O)[C@@H](NC(=O)[C@H](CCCCN)NC(=O)[C@H](CCCNC(=N)N)NC(=O)[C@H](Cc1c(F)c(F)c(F)c(F)c1F)NC(=O)[C@H](CCCCNC(=N)N)NC(=O)[C@H](C)NC(=O)[C@@H](NC(=O)[C@H](Cc1ccc(Cl)cc1)NC(=O)[C@@H](NC(=O)[C@H](C)NC(=O)[C@H](CC(=O)O)NC(=O)[C@@H](CCCNC(=N)N)NC(=O)[C@H](Cc1ccc(O)cc1)NC(=O)CCCCCCCCCCCNC(=O)Cc1c(F)c(F)c(F)c(F)c1F)[C@@H](C)CC)[C@@H](C)O)C(C)C)[C@@H](C)CC)C(=O)N[C@H](CCCNC(=N)N)C(=O)N[C@@H](CCCCNC(=N)N)C(=O)NCCCCCCCCCCCC(=O)NC [AVR-354] ({Phenylacetyl(2,3,4,5,6-F5)-12Ado}-Y[dR]DAI[Phe(4-Cl)]TA[hArg][Phe(F5)]RKVL[Abu]QLSARKLLQDI[Nle][dR][hArg][12Ado]-NHMe)
- Tumor Growth % [7]: 680.2%
- % Inhibition ([7]; vs control): 43.1%
- Tumor Size (mm^3) ([2]; 5 μg/day s.c.): 417.90 mm^3
- % Inhibition ([2]; 5 μg/day s.c.): 42.3%
- In vitro relative inhibitory potency in comparison to MIA-602, HCC-1806 [6]: 3.991
